Test [1] deals with Trichostrongylus colubriformis. Briefly: In vivo nematode test Trichostrongylus colubriformis/sheep. The following applies: experimentally infected sheep, treated after prepatent period; pure active compound orally and/or intravenously; dose at which nematode egg excretion with the faeces stops completely. As to the method:
Trichostrongylus colubriformis/Sheep
Sheep which have been infected experimentally with Trichostrongylus colubriformis were treated after the prepatent period had elapsed. The active compounds in the form of the pure active compound were administered orally and/or intravenously.
(§1) The degree of effectiveness is determined by quantitative determination of the nematode eggs excreted with the faeces before and after the treatment.
(§2) If, after the treatment, egg excretion stops completely, the nematodes were aborted or damaged to such an extent that they no longer produce eggs (dosis effectiva).

The test system of another test is Haemonchus contortus. As to the kind of experiment: In vivo nematode test Haemonchus contortus/sheep. The settings on record: experimentally infected sheep, treated after prepatent period; pure active compound orally and/or intravenously; dose at which nematode egg excretion with the faeces stops completely. The protocol:
Haemonchus contortus/Sheep
Sheep which have been infected experimentally with Haemonchus contortus were treated after the prepatent period had elapsed. The active compounds in the form of the pure active compound were administered orally and/or intravenously.
as §1, §2

For `CC[C@H](C)[C@H]1C(=O)O[C@H](C)C(=O)N(C)[C@@H](C)C(=O)O[C@H](C)C(=O)N(C)[C@@H]([C@@H](C)CC)C(=O)O[C@H](C)C(=O)N1C` [Example 1, Cyclo(-N-methyl-L-alanyl-D-lactyl-N-methyl-L-isoleucyl-D-lactyl-N-methyl-L- isoleucyl-D-lactyl-)], the “Dosis effectiva” value (in test [1]; with Haemonchus contortus) was 10 mg/kg each time.
